melting point	Compound
125 °C	CS(=O)(=O)c1cc(OC[C@@H](O)CN[C@H]2CC[C@H](c3ccc(C(=O)N4CCC5(CC4)Cc4ccccc4C5)cc3)CC2)ccc1O [compound No. 13, trans-4-{[(2S)-3-({4-[4-(1,3-dihydro-1′H-spiro[indene-2,4′-piperidin]-1′-ylcarbonyl)phenyl]-cyclohexyl}amino)-2-hydroxypropyl]oxy}-2-(methylsulfonyl)phenol]
125 °C	CS(=O)(=O)c1cc(OC[C@@H](O)CN[C@H]2CC[C@H](c3ccc(C(=O)N4CCC5(CCCc6ccccc65)CC4)cc3)CC2)ccc1O [compound No. 17, trans-4-{[(2S)-3-({4-[4-(3,4-dihydro-1′H-spiro[naphthalene-1,4′-piperidin]-1′-ylcarbonyl)phenyl]cyclohexyl}amino)-2-hydroxypropyl]-oxy}-2-(methylsulfonyl)phenol]
125 °C	CS(=O)(=O)c1cc(OC[C@@H](O)CN[C@H]2CC[C@H](c3ccc(C(=O)N4CCC5(CCc6ccccc65)CC4)cc3)CC2)ccc1O [compound No. 15, trans-4-{[(2S)-3-({4-[4-(2,3-dihydro-1′H-spiro[indene-1,4′-piperidin]-1′-ylcarbonyl)phenyl]-cyclohexyl}amino)-2-hydroxypropyl]oxy}-2-(methylsulfonyl)phenol]

Reference: patent US7625929B2, “Oxophenyl-cyclohexyl-propanolamine derivatives, production and use thereof in therapeutics” (sanofi-aventis, priority 2002, dated 2009)
